{"source": "patent US5843916A", "about": "“Cyclic amp analogues, individually and in pairs, to inhibit neoplastic cell growth” (priority 1994, dated 1998)", "key": {"[1]": {"system": "MDA-MB-231 mammary carcinoma", "test": "Growth of human mammary tumor xenograft, ip infusion (Table 8)", "type": "in vivo, human xenograft in athymic CD-1 mice", "settings": "7 days; for % Δ T/T or % Δ T/ΔC: positive = ΔT/ΔC", "procedure": "(§1) Based on the findings with the […] leukemia model, the efficacy of the 8-Cl-cAMP-Na+infusions were evaluated in advanced-stage human tumor xenograft models. Tumor fragments of approximately 14 mg were implanted subcutaneously in athymic CD-1 female mice and seven day intraperitoneal infusions of the cyclic nucleotide were initiated three weeks later when mean tumor weights had reached 300-400 mg. Tumor measurements were recorded on the initial day of treatment (staging day) and one day after treatment was completed (staging day +7), and were used to calculate changes in tumor weights.\n(§2) *Mean tumor weight per group on staging day.\n(§3) $Mean tumor weight per group on staging day +7.\n(§4) **Change in test tumor wt (finalinitial)/initial test tumor treatment.\n(§5) Denoted by negative value.\n(§6) $$Change in test tumor wt/change in control tumor wt. Used where test\n(§7) tumor size increased during treatment. Denoted by positive value."}, "[2]": {"system": "MX-1 mammary carcinoma", "test": "Growth of human mammary tumor xenograft, ip infusion (Table 8)", "type": "in vivo, human xenograft in athymic CD-1 mice", "settings": "7 days; for % Δ T/T or % Δ T/ΔC: negative = ΔT/T", "procedure": "as §1, §2, §3, §4, §5, §6, §7"}, "[3]": {"system": "LX-1-Lung carcinoma", "test": "Growth of human lung tumor xenograft, ip infusion (Table 9)", "type": "in vivo, human xenograft in athymic CD-1 mice", "settings": "7 days", "procedure": "as §1, §2, §3, §4, §5, §6, §7"}, "[4]": {"system": "two mammary, one lung, and one colon tumor", "test": "Advanced-stage human tumor xenografts, ip infusion", "type": "in vivo, human xenograft in athymic CD-1 mice", "settings": "seven day ip infusion", "procedure": "as §1"}, "[5]": {"system": "LOVO Colon carcinoma", "test": "Growth of human colon tumor xenograft, ip infusion (Table 9)", "type": "in vivo, human xenograft in athymic CD-1 mice", "settings": "7 days", "procedure": "as §1, §2, §3, §4, §5, §6, §7"}, "[6]": {"system": "LoVo colon tumors", "test": "Subcutaneous infusion in tumor-bearing mice", "type": "in vivo, human xenograft in athymic NCR-NU mice", "settings": "sc infusion approximately 42 mg/kg/day (1 mg/mouse), seven days"}, "[7]": {"system": "BDF1 mice", "test": "Toxicity in non-tumor BDF1 mice (Table 6)", "type": "in vivo, mouse", "settings": "for Toxic deaths, No. killed/No. treated: qd, day 1", "procedure": "(§8) Influence of 8-Cl-cAMP-Na^+ on the life span of\n(§9) non-tumor BDF1 mice when delivered i.p. by bolus injection\n(§10) When delivered qd, day 1 to nontumor BDF1 mice, the 480 and 288 mg/k"}, "[8]": {"test": "Toxicity in non-tumor BDF1 mice (Table 6)", "type": "in vivo, mouse", "settings": "mouse, in vivo; for mortality: qd, day 1, read-out: Toxic deaths, No. killed/No. treated", "procedure": "as §8, §9, §10"}, "[9]": {"system": "L1210 leukemia", "test": "Life span of L1210-inoculated BDF1 mice (Table 7)"}}, "note": "Where two headings read alike, the source gives them in different places."}
{"smiles": "Nc1ncnc2c1nc(Cl)n2[C@@H]1O[C@@H]2COP(=O)(O)O[C@H]2[C@H]1O", "note": "[8-Cl-cAMP-Na^+]", "values": [{"measurement": "Final Mean Tumor Wt", "setting": "[1]; 37 mg/kg/day, initial 367 mg", "value": 516, "unit": "mg"}, {"measurement": "% Δ T/T or % Δ T/ΔC", "setting": "[1]; 37 mg/kg/day", "value": "+41%"}, {"measurement": "Final Mean Tumor Wt", "setting": "[1]; 62 mg/kg/day, initial 375 mg", "value": 471, "unit": "mg"}, {"measurement": "% Δ T/T or % Δ T/ΔC", "setting": "[1]; 62 mg/kg/day", "value": "+26%"}, {"measurement": "Final Mean Tumor Wt", "setting": "[1]; 104 mg/kg/day, initial 367 mg", "value": 433, "unit": "mg"}, {"measurement": "% Δ T/T or % Δ T/ΔC", "setting": "[1]; 104 mg/kg/day", "value": "+18%"}, {"measurement": "Final Mean Tumor Wt", "setting": "[2]; 62 mg/kg/day, initial 337 mg", "value": 288, "unit": "mg"}, {"measurement": "% Δ T/T or % Δ T/ΔC", "setting": "[2]; 62 mg/kg/day", "value": -15, "unit": "%"}, {"measurement": "Final Mean Tumor Wt", "setting": "[2]; 104 mg/kg/day, initial 346 mg", "value": 323, "unit": "mg"}, {"measurement": "% Δ T/T or % Δ T/ΔC", "setting": "[2]; 104 mg/kg/day", "value": "-07", "unit": "%"}, {"measurement": "Final Mean Tumor Wt", "setting": "[2]; 173 mg/kg/day, initial 375 mg", "value": 336, "unit": "mg"}, {"measurement": "% Δ T/T or % Δ T/ΔC", "setting": "[2]; 173 mg/kg/day", "value": -10, "unit": "%"}, {"measurement": "Final Mean Tumor Wt", "setting": "[3]; 37 mg/kg/day, initial 330 mg", "value": 341, "unit": "mg"}, {"measurement": "% Δ T/T or % Δ T/ΔC", "setting": "[3]; 37 mg/kg/day, positive = ΔT/ΔC", "value": "+06%"}, {"measurement": "Final Mean Tumor Wt", "setting": "[3]; 62 mg/kg/day, initial 327 mg", "value": 277, "unit": "mg"}, {"measurement": "% Δ T/T or % Δ T/ΔC", "setting": "[3]; 62 mg/kg/day, negative = ΔT/T", "value": -15, "unit": "%"}, {"measurement": "Final Mean Tumor Wt", "setting": "[3]; 104 mg/kg/day, initial 324 mg", "value": 270, "unit": "mg"}, {"measurement": "% Δ T/T or % Δ T/ΔC", "setting": "[3]; 104 mg/kg/day, negative = ΔT/T", "value": -17, "unit": "%"}, {"measurement": "tumor growth during treatment", "setting": "[4]", "value": "caused tumor stasis during treatment"}, {"measurement": "Final Mean Tumor Wt", "setting": "[5]; 37 mg/kg/day, initial 288 mg", "value": 284, "unit": "mg"}, {"measurement": "% Δ T/T or % Δ T/ΔC", "setting": "[5]; 37 mg/kg/day, negative = ΔT/T", "value": "-01", "unit": "%"}, {"measurement": "Final Mean Tumor Wt", "setting": "[5]; 62 mg/kg/day, initial 293 mg", "value": 290, "unit": "mg"}, {"measurement": "% Δ T/T or % Δ T/ΔC", "setting": "[5]; 62 mg/kg/day, negative = ΔT/T", "value": "-01", "unit": "%"}, {"measurement": "% Δ T/T or % Δ T/ΔC", "setting": "[5]; 104 mg/kg/day", "value": -35, "unit": "%"}, {"measurement": "Final Mean Tumor Wt", "setting": "[5]; 104 mg/kg/day, initial 288 mg", "value": 317, "unit": "mg"}, {"measurement": "toxicity", "setting": "[6]", "value": "appeared to be toxic"}, {"measurement": "Toxic deaths, No. killed/No. treated", "setting": "[7]; 173 mg/kg ip bolus", "value": "2/5"}, {"measurement": "Toxic deaths, No. killed/No. treated", "setting": "[7]; 173 mg/kg ip bolus, listed as 8Cl-cAMP-Na^+", "value": "killed 2 of 5 mice"}, {"measurement": "Toxic deaths, No. killed/No. treated", "setting": "[7]; 288 mg/kg ip bolus", "value": "5/5"}, {"measurement": "Toxic deaths, No. killed/No. treated", "setting": "[7]; 288 mg/kg ip bolus, listed as 8Cl-cAMP-Na^+", "value": "lethally toxic for all treated mice"}, {"measurement": "Toxic deaths, No. killed/No. treated", "setting": "[7]; 480 mg/kg ip bolus", "value": "5/5"}, {"measurement": "Toxic deaths, No. killed/No. treated", "setting": "[7]; 480 mg/kg ip bolus, listed as 8Cl-cAMP-Na^+", "value": "lethally toxic for all treated mice"}, {"measurement": "LD10", "setting": "[7]; Single ip dose", "value": 122, "unit": "mg/kg"}, {"measurement": "mortality", "setting": "[8]; 22 mg/kg ip bolus", "value": 0, "unit": "%"}, {"measurement": "mortality", "setting": "[8]; 37 mg/kg ip bolus", "value": 0, "unit": "%"}, {"measurement": "mortality", "setting": "[8]; 62 mg/kg ip bolus", "value": 0, "unit": "%"}, {"measurement": "mortality", "setting": "[8]; 104 mg/kg ip bolus", "value": 0, "unit": "%"}, {"measurement": "LD50", "setting": "[8]; Single ip dose", "value": 195, "unit": "mg/kg"}, {"measurement": "Postinoculation lifespan (T/C)", "setting": "[9]; 0.6 mg/kg/day ip, 24-hr infusion, day 1-5", "value": 100}, {"measurement": "Postinoculation lifespan (T/C)", "setting": "[9]; 1.7 mg/kg/day ip, 24-hr infusion, day 1-5", "value": 100}, {"measurement": "Postinoculation lifespan (T/C)", "setting": "[9]; 4.8 mg/kg/day ip, 24-hr infusion, day 1-5", "value": 100}, {"measurement": "Postinoculation lifespan (T/C)", "setting": "[9]; 13 mg/kg/day ip, 24-hr infusion, day 1-5", "value": 113}, {"measurement": "Postinoculation lifespan (T/C)", "setting": "[9]; 22 mg/kg/day ip, 24-hr infusion, day 1-5", "value": 126}, {"measurement": "Postinoculation lifespan (T/C)", "setting": "[9]; 22 mg/kg/day ip, qd, day 1-7", "value": 103}, {"measurement": "Postinoculation lifespan (T/C)", "setting": "[9]; 37 mg/kg/day ip, 24-hr infusion, day 1-5", "value": 126}, {"measurement": "Postinoculation lifespan (T/C)", "setting": "[9]; 37 mg/kg/day ip, qd, day 1-7", "value": 93}, {"measurement": "Postinoculation lifespan (T/C)", "setting": "[9]; 62 mg/kg/day ip, 24-hr infusion, day 1-5", "value": 137}, {"measurement": "Postinoculation lifespan (T/C)", "setting": "[9]; 62 mg/kg/day ip, qd, day 1-7", "value": 103}, {"measurement": "Postinoculation lifespan (T/C)", "setting": "[9]; 104 mg/kg/day ip, 24-hr infusion, day 1-5", "value": 137}, {"measurement": "Postinoculation lifespan (T/C)", "setting": "[9]; 104 mg/kg/day ip, qd, day 1-7", "value": 98}, {"measurement": "Postinoculation lifespan (T/C)", "setting": "[9]; 173 mg/kg/day ip, 24-hr infusion, day 1-5", "value": 131}, {"measurement": "toxicity", "setting": "[9]; 288 mg/kg/day ip infusion", "value": "toxic"}, {"measurement": "toxicity", "setting": "[9]; 288 mg/kg/day ip infusion, listed as 8Cl-cAMP-Na^+", "value": "killed 2 to 5 mice"}, {"measurement": "Postinoculation lifespan (T/C)", "setting": "[9]; 288 mg/kg/day ip, 24-hr infusion, day 1-5, toxic", "value": 128}, {"measurement": "toxicity", "setting": "[9]; 480 mg/kg/day ip infusion", "value": "toxic"}, {"measurement": "toxicity", "setting": "[9]; 480 mg/kg/day ip infusion, listed as 8Cl-cAMP-Na^+", "value": "lethally toxic for all treated mice"}, {"measurement": "Postinoculation lifespan (T/C)", "setting": "[9]; 480 mg/kg/day ip, 24-hr infusion, day 1-5, toxic", "value": 93}, {"measurement": "toxicity", "setting": "[9]; 800 mg/kg/day ip infusion", "value": "toxic"}, {"measurement": "toxicity", "setting": "[9]; 800 mg/kg/day ip infusion, listed as 8Cl-cAMP-Na^+", "value": "lethally toxic for all treated mice"}, {"measurement": "Postinoculation lifespan (T/C)", "setting": "[9]; 800 mg/kg/day ip, 24-hr infusion, day 1-5, toxic", "value": 62}]}
